Patent US9079901B2, “Fused heterocyclic compounds as ion channel modulators” (Gilead Sciences, Inc., priority 2010, dated 2015)

target: wild-type human cardiac sodium channel, hNav1.5 (late sodium current) in HEK293 cells (Homo sapiens, UniProt Q14524); test: Late INa screening assay (automated whole-cell patch clamp, PatchXpress); type: cell-based; conditions: HEK293, compound at 1 μM; late INa generated with 10 μM Tefluthrin (or 50 nM ATX II); HEK293 hNav1.5; read-out: Late INa 1 μM (percent block of late INa)
In short: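 hNav1.5-expressing HEK293 cells (no β subunits) were recorded by automated whole-cell patch clamp at 24–27 °C with CsF-based internal solution. Late current was induced by 10 μM tefluthrin (or 50 nM ATX II) and evoked by 250 ms steps from −120 to −20 mV at 0.1 Hz. Compounds, typically 10 μM, were applied in three additions over 7–8 min; mean current at 225–250 ms, normalised to 0Na baseline, gave percent block.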

Chain of wild-type human cardiac sodium channel, hNav1.5 (late sodium current) in HEK293 cells (Q14524 whole entry): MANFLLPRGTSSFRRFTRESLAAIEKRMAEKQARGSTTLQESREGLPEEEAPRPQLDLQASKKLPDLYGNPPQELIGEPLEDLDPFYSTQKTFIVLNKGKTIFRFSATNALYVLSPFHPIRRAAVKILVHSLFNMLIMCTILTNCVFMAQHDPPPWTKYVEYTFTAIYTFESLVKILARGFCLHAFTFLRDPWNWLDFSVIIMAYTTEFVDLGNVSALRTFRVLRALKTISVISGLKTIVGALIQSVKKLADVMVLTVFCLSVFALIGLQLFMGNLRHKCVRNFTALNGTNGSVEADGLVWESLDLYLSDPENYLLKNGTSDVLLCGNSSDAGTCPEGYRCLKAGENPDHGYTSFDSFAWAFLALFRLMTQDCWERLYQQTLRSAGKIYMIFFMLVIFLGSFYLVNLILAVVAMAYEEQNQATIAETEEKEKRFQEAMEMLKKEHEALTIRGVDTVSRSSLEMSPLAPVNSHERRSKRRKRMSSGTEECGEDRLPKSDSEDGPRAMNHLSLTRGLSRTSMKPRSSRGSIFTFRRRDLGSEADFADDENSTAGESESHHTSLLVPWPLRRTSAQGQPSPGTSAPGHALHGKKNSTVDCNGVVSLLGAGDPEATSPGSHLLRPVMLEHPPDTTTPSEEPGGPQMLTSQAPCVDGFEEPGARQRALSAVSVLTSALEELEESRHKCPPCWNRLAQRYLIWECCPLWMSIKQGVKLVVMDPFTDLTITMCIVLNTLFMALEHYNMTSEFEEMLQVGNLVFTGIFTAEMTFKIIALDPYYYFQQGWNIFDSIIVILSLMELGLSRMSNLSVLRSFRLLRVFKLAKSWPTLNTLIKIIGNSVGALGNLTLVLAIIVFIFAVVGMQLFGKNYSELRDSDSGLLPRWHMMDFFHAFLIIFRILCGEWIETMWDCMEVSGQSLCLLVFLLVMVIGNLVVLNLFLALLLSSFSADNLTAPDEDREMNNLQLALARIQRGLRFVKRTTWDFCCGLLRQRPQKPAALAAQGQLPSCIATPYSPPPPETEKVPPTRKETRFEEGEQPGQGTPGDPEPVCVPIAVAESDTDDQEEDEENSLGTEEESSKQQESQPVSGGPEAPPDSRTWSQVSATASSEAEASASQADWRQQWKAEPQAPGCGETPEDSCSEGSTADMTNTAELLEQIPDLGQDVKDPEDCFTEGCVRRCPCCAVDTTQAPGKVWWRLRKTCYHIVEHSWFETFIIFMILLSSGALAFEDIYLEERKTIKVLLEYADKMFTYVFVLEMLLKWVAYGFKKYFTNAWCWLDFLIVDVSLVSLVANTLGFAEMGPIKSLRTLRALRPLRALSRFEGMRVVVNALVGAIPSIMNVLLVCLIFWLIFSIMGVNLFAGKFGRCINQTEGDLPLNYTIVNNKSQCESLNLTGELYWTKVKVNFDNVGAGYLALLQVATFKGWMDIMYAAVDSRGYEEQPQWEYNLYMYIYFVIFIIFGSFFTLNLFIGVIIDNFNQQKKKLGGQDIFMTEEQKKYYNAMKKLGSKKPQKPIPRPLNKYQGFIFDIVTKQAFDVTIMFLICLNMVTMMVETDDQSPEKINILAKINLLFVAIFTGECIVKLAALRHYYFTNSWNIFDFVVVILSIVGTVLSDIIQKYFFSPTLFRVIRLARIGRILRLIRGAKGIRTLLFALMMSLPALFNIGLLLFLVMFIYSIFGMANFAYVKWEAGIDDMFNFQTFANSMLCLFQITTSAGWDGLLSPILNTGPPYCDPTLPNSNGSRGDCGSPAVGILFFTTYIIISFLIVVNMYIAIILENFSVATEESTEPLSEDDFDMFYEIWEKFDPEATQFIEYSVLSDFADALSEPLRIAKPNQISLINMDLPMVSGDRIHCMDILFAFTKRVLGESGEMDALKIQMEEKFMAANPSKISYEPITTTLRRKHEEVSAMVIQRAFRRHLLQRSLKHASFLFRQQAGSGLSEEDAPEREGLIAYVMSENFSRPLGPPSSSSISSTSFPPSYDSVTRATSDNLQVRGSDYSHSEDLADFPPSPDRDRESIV

| SMILES | inhibition at 1 µM [%] |
| --- | --- |
| COc1nc(OCCn2nc3ccc(-c4ccc(OC(F)(F)F)cc4)cn3c2=O)ncc1Cl [compound 130, 2-(2-(5-chloro-4-methoxypyrimidin-2-yloxy)ethyl)-6-(4-(trifluoromethoxy)phenyl)-[1,2,4]triazolo[4,3-a]pyridin-3(2H)-one] | 32.4 |
| Cc1noc(Cn2nc3ccc(-c4ccc(C(=O)c5ccccc5)cc4)cn3c2=O)n1 [compound 131, 6-(4-benzoylphenyl)-2-((3-methyl-1,2,4-oxadiazol-5-yl)methyl)-[1,2,4]triazolo[4,3-a]pyridin-3(2H)-one] | 34.7 |
| O=c1n(CCOc2nccc(Oc3ccc(Cl)cc3)n2)nc2ccc(-c3ccc(OC(F)(F)F)cc3)cn12 [compound 132, 2-(2-(4-(4-chlorophenoxy)pyrimidin-2-yloxy)ethyl)-6-(4-(trifluoromethoxy)phenyl)-[1,2,4]triazolo[4,3-a]pyridin-3(2H)-one] | 11 |
| O=c1n(CCOc2ncc(F)c(N3CC(F)(F)C3)n2)nc2ccc(-c3ccc(OC(F)(F)F)cc3)cn12 [compound 133, 2-(2-(4-(3,3-difluoroazetidin-1-yl)-5-fluoropyrimidin-2-yloxy)ethyl)-6-(4-(trifluoromethoxy)phenyl)-[1,2,4]triazolo[4,3-a]pyridin-3(2H)-one] | 20.5 |
| Cc1noc(Cn2nc3ccc(-c4ccc(Cl)c(Cl)c4)cn3c2=O)n1 [compound 134, 6-(3,4-dichlorophenyl)-2-((3-methyl-1,2,4-oxadiazol-5-yl)methyl)-[1,2,4]triazolo[4,3-a]pyridin-3(2H)-one] | 15.5 |
| O=c1n(CCOc2nccn3cccc23)nc2ccc(-c3ccc(OC(F)(F)F)cc3)cn12 [compound 135, 2-(2-(pyrrolo[1,2-a]pyrazin-1-yloxy)ethyl)-6-(4-(trifluoromethoxy)phenyl)-[1,2,4]triazolo[4,3-a]pyridin-3(2H)-one] | 41.5 |
| O=C1c2ccccc2C(=O)N1Cc1nc(Cn2nc3ccc(-c4ccc(OC(F)(F)F)cc4)cn3c2=O)no1 [compound 136, 2-((3-((3-oxo-6-(4-(trifluoromethoxy)phenyl)-[1,2,4]triazolo[4,3-a]pyridin-2(3H)-yl)methyl)-1,2,4-oxadiazol-5-yl)methyl)isoindoline-1,3-dione] | 25.2 |
| Cc1noc(Cn2nc3ccc(-c4ccc(C(F)(F)F)cc4)cn3c2=O)n1 [compound 137, 2-((3-methyl-1,2,4-oxadiazol-5-yl)methyl)-6-(4-(trifluoromethyl)phenyl)-[1,2,4]triazolo[4,3-a]pyridin-3(2H)-one] | 28.8 |
| O=c1n(CCOc2ncc(F)cn2)nc2ccc(-c3ccc(OC(F)(F)F)cc3)cn12 [compound 138, 2-(2-(5-fluoropyrimidin-2-yloxy)ethyl)-6-(4-(trifluoromethoxy)phenyl)-[1,2,4]triazolo[4,3-a]pyridin-3(2H)-one] | 32.4 |
| O=c1n(CCOc2cnc(Cl)nc2)nc2ccc(-c3ccc(OC(F)(F)F)cc3)cn12 [compound 139, 2-(2-(2-chloropyrimidin-5-yloxy)ethyl)-6-(4-(trifluoromethoxy)phenyl)-[1,2,4]triazolo[4,3-a]pyridin-3(2H)-one] | 20.2 |
| Cc1nc(Cn2nc3ccc(-c4ccc(Oc5ccc(F)cc5)cc4)cn3c2=O)no1 [compound 140, 6-(4-(4-fluorophenoxy)phenyl)-2-((5-methyl-1,2,4-oxadiazol-3-yl)methyl)-[1,2,4]triazolo[4,3-a]pyridin-3(2H)-one] | 60.6 |
| O=c1n(CCOc2nccc3ccccc23)nc2ccc(-c3ccc(OC(F)(F)F)cc3)cn12 [compound 141, 2-(2-(isoquinolin-1-yloxy)ethyl)-6-(4-(trifluoromethoxy)phenyl)-[1,2,4]triazolo[4,3-a]pyridin-3(2H)-one] | 29.9 |
| O=c1n(Cc2noc(C3CC3)n2)nc2ccc(-c3ccc(OC(F)(F)F)cc3)cn12 [compound 142, 2-((5-cyclopropyl-1,2,4-oxadiazol-3-yl)methyl)-6-(4-(trifluoromethoxy)phenyl)-[1,2,4]triazolo[4,3-a]pyridin-3(2H)-one] | 20 |
| O=c1[nH]nc2ccc(-c3ccc(Oc4ccc(F)cc4)cc3)cn12 [compound 143, 6-(4-(4-fluorophenoxy)phenyl)-[1,2,4]triazolo[4,3-a]pyridin-3(2H)-one] | 56.6 |
| O=c1n(Cc2cc(-c3ccccn3)on2)nc2ccc(-c3ccc(OC(F)(F)F)cc3)cn12 [compound 144, 2-((5-(pyridin-2-yl)isoxazol-3-yl)methyl)-6-(4-(trifluoromethoxy)phenyl)-[1,2,4]triazolo[4,3-a]pyridin-3(2H)-one] | 19.2 |
| Cc1cccnc1-c1cc(Cn2nc3ccc(-c4ccc(OC(F)(F)F)cc4)cn3c2=O)no1 [compound 145, 2-((5-(3-methylpyridin-2-yl)isoxazol-3-yl)methyl)-6-(4-(trifluoromethoxy)phenyl)-[1,2,4]triazolo[4,3-a]pyridin-3(2H)-one] | 37.7 |

| SMILES | inhibition at 1 µM [%] |
| --- | --- |
| O=c1n(Cc2noc(CO)n2)nc2ccc(-c3ccc(Oc4ccc(F)cc4)cc3)cn12 [compound 146, 6-(4-(4-fluorophenoxy)phenyl)-2-((5-(hydroxymethyl)-1,2,4-oxadiazol-3-yl)methyl)-[1,2,4]triazolo[4,3-a]pyridin-3(2H)-one] | 32.6 |
| Cc1noc(C(C)n2nc3ccc(-c4ccc(OC(F)(F)F)cc4)cn3c2=O)n1 (centres unmarked) [compound 147, 2-(1-(3-methyl-1,2,4-oxadiazol-5-yl)ethyl)-6-(4-(trifluoromethoxy)phenyl)-[1,2,4]triazolo[4,3-a]pyridin-3(2H)-one] | 13.4 |
| Cc1nc(Cn2nc3ccc(-c4ccc(C(F)(F)F)cc4)cn3c2=O)no1 [compound 148, 2-((5-methyl-1,2,4-oxadiazol-3-yl)methyl)-6-(4-(trifluoromethyl)phenyl)-[1,2,4]triazolo[4,3-a]pyridin-3(2H)-one] | 11.6 |
| Cc1noc(Cn2nc3ccc(-c4ccc(Cl)cc4)cn3c2=O)n1 [compound 149, 6-(4-chlorophenyl)-2-((3-methyl-1,2,4-oxadiazol-5-yl)methyl)-[1,2,4]triazolo[4,3-a]pyridin-3(2H)-one] | 26.2 |
| Cc1noc(Cn2nc3ccc(-c4ccc(F)c(F)c4)cn3c2=O)n1 [compound 150, 6-(3,4-difluorophenyl)-2-((3-methyl-1,2,4-oxadiazol-5-yl)methyl)-[1,2,4]triazolo[4,3-a]pyridin-3(2H)-one] | 12.8 |
| O=c1n(C/C=C/c2ccccc2)nc2ccc(-c3ccc(OC(F)(F)F)cc3)cn12 [compound 151, 2-cinnamyl-6-(4-(trifluoromethoxy)phenyl)-[1,2,4]triazolo[4,3-a]pyridin-3(2H)-one] | 16.5 |
| CC1(C)OC[C@@H](c2nc(Cn3nc4ccc(-c5ccc(OC(F)(F)F)cc5)cn4c3=O)no2)O1 [compound 152, (S)-2-((5-(2,2-dimethyl-1,3-dioxolan-4-yl)-1,2,4-oxadiazol-3-yl)methyl)-6-(4-(trifluoromethoxy)phenyl)-[1,2,4]triazolo[4,3-a]pyridin-3(2H)-one] | 10.7 |
| COCc1noc(Cn2nc3ccc(-c4ccc(OC(F)(F)F)cc4)cn3c2=O)n1 [compound 153, 2-((3-(methoxymethyl)-1,2,4-oxadiazol-5-yl)methyl)-6-(4-(trifluoromethoxy)phenyl)-[1,2,4]triazolo[4,3-a]pyridin-3(2H)-one] | 23.2 |
| O=c1n(Cc2noc(C(F)F)n2)nc2ccc(-c3ccc(OC(F)(F)F)cc3)cn12 [compound 154, 2-((5-(difluoromethyl)-1,2,4-oxadiazol-3-yl)methyl)-6-(4-(trifluoromethoxy)phenyl)-[1,2,4]triazolo[4,3-a]pyridin-3(2H)-one] | 21 |
| Cc1noc(Cn2nc3ccc(-c4ccc(OC(F)(F)F)c(F)c4)cn3c2=O)n1 [compound 155, 6-(3-fluoro-4-(trifluoromethoxy)phenyl)-2-((3-methyl-1,2,4-oxadiazol-5-yl)methyl)-[1,2,4]triazolo[4,3-a]pyridin-3(2H)-one] | 18.8 |
| O=c1n(CCOc2nccc(OCCO)n2)nc2ccc(-c3ccc(OC(F)(F)F)cc3)cn12 [compound 156, 2-(2-(4-(2-hydroxyethoxy)pyrimidin-2-yloxy)ethyl)-6-(4-(trifluoromethoxy)phenyl)-[1,2,4]triazolo[4,3-a]pyridin-3(2H)-one] | 6.62 |
| O=c1n(Cc2noc(CCl)n2)nc2ccc(-c3ccc(OC(F)(F)F)cc3)cn12 [compound 157, 2-((5-(chloromethyl)-1,2,4-oxadiazol-3-yl)methyl)-6-(4-(trifluoromethoxy)phenyl)-[1,2,4]triazolo[4,3-a]pyridin-3(2H)-one] | 22.7 |
| CC1(C)OC[C@H](c2nc(Cn3nc4ccc(-c5ccc(OC(F)(F)F)cc5)cn4c3=O)no2)O1 [compound 158, (R)-2-((5-(2,2-dimethyl-1,3-dioxolan-4-yl)-1,2,4-oxadiazol-3-yl)methyl)-6-(4-(trifluoromethoxy)phenyl)-[1,2,4]triazolo[4,3-a]pyridin-3(2H)-one] | 25.3 |
| CSc1ccnc(OCCn2nc3ccc(-c4ccc(OC(F)(F)F)cc4)cn3c2=O)n1 [compound 159, 2-(2-(4-(methylthio)pyrimidin-2-yloxy)ethyl)-6-(4-(trifluoromethoxy)phenyl)-[1,2,4]triazolo[4,3-a]pyridin-3(2H)-one] | 49.6 |
| Cc1noc(Cn2nc3ccc(-c4ccc(Cl)c(F)c4)cn3c2=O)n1 [compound 161, 6-(4-chloro-3-fluorophenyl)-2-((3-methyl-1,2,4-oxadiazol-5-yl)methyl)-[1,2,4]triazolo[4,3-a]pyridin-3(2H)-one] | 13.9 |

same assay, conditions: compound at 1 μM; late INa generated with 10 μM Tefluthrin (or 50 nM ATX II); HEK293 hNav1.5

| SMILES | Late INa 1 μM (percent block of late INa) [%] |
| --- | --- |
| N#CCOc1ccnc(OCCn2nc3ccc(-c4ccc(OC(F)(F)F)cc4)cn3c2=O)n1 [compound 160] | 24.6907 |
